Laboratory results published in ChEMBL document CHEMBL2321853, “Novel acylethanolamide derivatives that modulate body weight through enhancement of hypothalamic pro-opiomelanocortin (POMC) and/or decreased neuropeptide Y (NPY)” (J Med Chem, 2013).
Calls of active or inactive are those of the source. No cut-off for these calls is given here.

Columns and labels:
Mus musculus [1] = assay: Antiobesity activity in Sabra mouse assessed as change in body weight at 1 mg/kg, ip administered on day 8, 9, 10, 11, 14, 18, 24 and 32 measured on day 21 relative to control; assay type: functional; settings: route intraperitoneal
Hypothalamus [2] = assay: Effect on NPY gene expression in Sabra mouse hypothalamus assessed as change in mRNA level at 1 mg/kg, ip administered on day 8, 9, 10, 11, 14, 18, 24 and 32 by RT-PCR analysis relative to GAPDH; assay type: functional; settings: route intraperitoneal
Hypothalamus [3] = assay: Effect on CART gene expression in Sabra mouse hypothalamus assessed as change in mRNA level at 1 mg/kg, ip administered on day 8, 9, 10, 11, 14, 18, 24 and 32 by RT-PCR analysis relative to GAPDH; assay type: functional; settings: route intraperitoneal
Mus musculus [4] = assay: Antiobesity activity in Sabra mouse assessed as reduction in body weight at 10 mg/kg, ip administered on day 6 to 10 measured on day 16 relative to control; assay type: functional; design: scale not given: the % may be the effect or the level left; settings: route intraperitoneal
Mus musculus [5] = assay: Enhancement of motor activity in Sabra mouse at 1 mg/kg, ip administered on day 6 to 10 by open field test relative to control; assay type: functional; settings: route intraperitoneal
Mus musculus [6] = assay: Antiobesity activity in Sabra mouse assessed as reduction in body weight at 1 mg/kg, ip administered on day 0, 10, 11, 12, 24, 29 measured on day 39 relative to control; assay type: functional; design: scale not given: the % may be the effect or the level left; settings: route intraperitoneal
Mus musculus [7] = assay: Antiobesity activity in C57BL/6 mouse assessed as change in AST level at 5 mg/kg, ip measured on day 36 (reference value: 146.7 IU/L); assay type: functional; settings: route intraperitoneal
Mus musculus [8] = assay: Enhancement of cognitive function in Sabra mouse at 10 mg/kg, ip administered on day 6 to 10 by eight-arm maze test relative to control; assay type: functional, organism-based; design: dose 10 mg/kg
Hypothalamus [9] = assay: Effect on FAAH gene expression in Sabra mouse hypothalamus assessed as change in mRNA level at 1 mg/kg, ip administered on day 8, 9, 10, 11, 14, 18, 24 and 32 by RT-PCR analysis relative to GAPDH; assay type: functional; settings: route intraperitoneal
Mus musculus [10] = assay: Antiobesity activity in Sabra mouse assessed as change in food consumption at 1 mg/kg, ip administered on day 8, 9, 10, 11, 14, 18, 24 and 32 measured after 3 weeks relative to control; assay type: functional; settings: route intraperitoneal
Mus musculus [11] = assay: Antiobesity activity in Sabra mouse assessed as change in body weight at 1 mg/kg, ip administered on day 8, 9, 10, 11, 14, 18, 24 and 32 measured on day 30 relative to control; assay type: functional; settings: route intraperitoneal
Mus musculus [12] = assay: Antiobesity activity in C57BL/6 mouse assessed as change in glucose level in blood at 5 mg/kg, ip administered on day 1, 4, 5, 7, 17, 15, 19 measured on day 19 relative to control; assay type: functional; settings: route intraperitoneal
Mus musculus [13] = assay: Antiobesity activity in Sabra mouse assessed as change in body weight at 1 mg/kg, ip administered on day 8, 12 and 43 measured on day 36 relative to control; assay type: functional; settings: route intraperitoneal
Mus musculus [14] = assay: Antiobesity activity in Sabra mouse assessed as change in food consumption at 1 mg/kg, ip administered on day 8, 9, 10, 11, 14, 18, 24 and 32 measured after 2 weeks relative to control; assay type: functional; settings: route intraperitoneal
Hypothalamus [15] = assay: Decrease in 2-AG level in Sabra mouse hypothalamus at 8 mg/kg, ip for 39 days (reference value: 100 +/- 7 %); assay type: functional; design: scale not given: the % may be the effect or the level left; settings: route intraperitoneal
Mus musculus [16] = assay: Antiobesity activity in Sabra mouse assessed as reduction in body weight at 1 mg/kg, ip administered on day 0, 10, 11, 12, 24, 29 measured on day 22 relative to control; assay type: functional; design: scale not given: the % may be the effect or the level left; settings: route intraperitoneal
Mus musculus [17] = assay: Antiobesity activity in Sabra mouse assessed as change in food consumption at 1 mg/kg, ip administered on day 8, 9, 10, 11, 14, 18, 24 and 32 measured after 6 weeks relative to control; assay type: functional; settings: route intraperitoneal
Mus musculus [18] = assay: Antiobesity activity in C57BL/6 mouse assessed as change in glucose level in blood at 5 mg/kg, ip administered on day 1, 4, 5, 7, 17, 15, 19 measured on day 15 relative to control; assay type: functional; settings: route intraperitoneal
Mus musculus [19] = assay: Antiobesity activity in high fat diet fed C57BL/6 mouse assessed as reduction in body weight at 1 mg/kg, ip administered on day 3, 6, 8, 9, 10 measured on day 8 relative to control; assay type: functional; design: scale not given: the % may be the effect or the level left; settings: route intraperitoneal
[20] = molecular target: T1, Fatty-acid amide hydrolase 1 (Rattus norvegicus) (UniProt P97612); assay: Inhibition of rat brain FAAH using [3H]anandamide as substrate at 10 uM preincubated for 15 mins before substrate addition relative to control
T1 sequence (whole entry): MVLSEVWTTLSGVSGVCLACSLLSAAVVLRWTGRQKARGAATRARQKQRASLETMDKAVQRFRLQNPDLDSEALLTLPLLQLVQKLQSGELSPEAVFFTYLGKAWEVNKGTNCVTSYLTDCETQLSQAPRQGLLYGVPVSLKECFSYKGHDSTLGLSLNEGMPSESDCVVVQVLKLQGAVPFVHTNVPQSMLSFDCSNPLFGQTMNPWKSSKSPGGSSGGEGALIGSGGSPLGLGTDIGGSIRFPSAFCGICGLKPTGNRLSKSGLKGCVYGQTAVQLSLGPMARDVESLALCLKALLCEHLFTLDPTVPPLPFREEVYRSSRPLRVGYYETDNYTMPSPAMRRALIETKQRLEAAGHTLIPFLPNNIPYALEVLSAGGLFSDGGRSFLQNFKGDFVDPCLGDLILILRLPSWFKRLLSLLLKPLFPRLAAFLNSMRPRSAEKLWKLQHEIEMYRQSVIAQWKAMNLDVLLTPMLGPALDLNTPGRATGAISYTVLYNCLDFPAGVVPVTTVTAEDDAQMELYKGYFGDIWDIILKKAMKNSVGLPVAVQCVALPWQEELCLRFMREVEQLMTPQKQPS

Mus musculus [21] = assay: Antiobesity activity in C57BL/6 mouse assessed as weight loss at 5 mg/kg, ip administered on day 1, 4, 5, 7, 17, 15, 19 measured on day 12 relative to control; assay type: functional; settings: route intraperitoneal
Mus musculus [22] = assay: Antiobesity activity in C57BL/6 mouse assessed as weight loss at 5 mg/kg, ip administered on day 1, 4, 5, 7, 17, 15, 19 measured on day 19 relative to control; assay type: functional; settings: route intraperitoneal
Mus musculus [23] = assay: Enhancement of cognitive function in Sabra mouse at 1 mg/kg, ip measured on day 8 to 12 by eight-arm maze test; assay type: functional, organism-based; design: dose 1 mg/kg
Hypothalamus [24] = assay: Effect on POMC gene expression in ip dosed Sabra mouse hypothalamus assessed as increase in mRNA level administered on day 6 to 10 measured on day 16 by RT-PCR analysis relative to control; assay type: functional, organism-based
Mus musculus [25] = assay: Antiobesity activity in Sabra mouse assessed as reduction in body weight at 1 mg/kg, ip administered on day 0, 10, 11, 12, 24, 29 measured on day 12 relative to control; assay type: functional; design: scale not given: the % may be the effect or the level left; settings: route intraperitoneal
Mus musculus [26] = assay: Antiobesity activity in Sabra mouse assessed as change in body weight at 1 mg/kg, ip administered on day 8, 12 and 43 measured on day 12 relative to control; assay type: functional; settings: route intraperitoneal
[27] = molecular target: Cannabinoid receptor 1 (Homo sapiens) (UniProt P21554); assay: Displacement of [3H]SR141716A from human CB1 receptor expressed in rat Chem-1 cell membrane at 10 uM relative to control; assay type: cell membranes
Cannabinoid receptor 1 (Homo sapiens), sequence (P21554 whole entry): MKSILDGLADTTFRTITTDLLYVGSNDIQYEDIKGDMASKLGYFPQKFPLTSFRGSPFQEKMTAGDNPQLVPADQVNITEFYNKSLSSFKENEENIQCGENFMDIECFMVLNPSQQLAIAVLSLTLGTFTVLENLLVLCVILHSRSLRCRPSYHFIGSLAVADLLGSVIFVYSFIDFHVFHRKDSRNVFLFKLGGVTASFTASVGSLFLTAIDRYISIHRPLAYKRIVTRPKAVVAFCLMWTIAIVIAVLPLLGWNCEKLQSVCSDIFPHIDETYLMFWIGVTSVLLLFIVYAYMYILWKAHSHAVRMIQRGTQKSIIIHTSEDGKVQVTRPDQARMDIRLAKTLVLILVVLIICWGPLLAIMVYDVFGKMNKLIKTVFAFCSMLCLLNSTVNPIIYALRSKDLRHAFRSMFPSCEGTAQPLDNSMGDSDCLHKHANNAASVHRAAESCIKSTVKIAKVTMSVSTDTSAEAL

## CCCCCCCC/C=C\CCCCCCCC(=O)N[C@H](CO)C(C)C
Mus musculus [1]
  Activity: -2.4%
Hypothalamus [2]
  Activity: -11%
Hypothalamus [3]
  Activity: 15%
Mus musculus [4]
  Activity: 6.4%
Mus musculus [5]
  Activity: 20%
Mus musculus [6]
  Activity: -7.31%
Mus musculus [7]
  Activity: 126 IU/L
Mus musculus [8]
  Activity: inactive
Hypothalamus [9]
  Activity: -33%
Mus musculus [10]
  Activity: 91.2%
Mus musculus [11]
  Activity: -5.2%
Mus musculus [12]
  Activity: -21.6%
Mus musculus [13]
  Activity: -6.9%
Mus musculus [14]
  Activity: 93.8%
Hypothalamus [15]
  Activity: 44.5%
Mus musculus [16]
  Activity: -3.06%
Mus musculus [17]
  Activity: 83.6%
Mus musculus [18]
  Activity: -16.3%
Mus musculus [19]
  Activity: -3.2%
[20]
  inhibition: 14%
Mus musculus [21]
  Activity: -5.6%
Mus musculus [22]
  Activity: 2.1%
Mus musculus [23]
  Activity: Active
Hypothalamus [24]
  Activity: Dose-dependent effect
Mus musculus [25]
  Activity: -1.79%
Mus musculus [26]
  Activity: -2.2%
[27]
  inhibition: 35%
